Assay results from US20170027954A1, “METHODS OF ENHANCING ANTIBODY-DEPENDENT CELLULAR CYTOTOXICITY” (VENTIRX PHARMACEUTICALS, INC., priority 2010, published 2017).

What was measured:
Assay type in all cases: cell-based, human
K562 target cells = test: NK assay: lysis of Calcein AM labeled K562 target cells by PBMCs stimulated with the ADCC enhancer; conditions: FIG. 1
Experimental: Stimulation of PBMCs: Human Peripheral blood mononuclear cells (PBMCs) were isolated by Ficoll™ density gradient centrifugation and resuspended in RPMI containing 2% heat-inactivated FBS. PBMCs at a concentration of 1 to 3 million cells per mL were incubated with 10-500 nM ADCC enhancer in a humidified CO2 incubator for 18-72 hrs. Activated PBMCs were then used as effector cells in NK and ADCC assays. NK and ADCC Assays: PBMCs activated with the ADCC enhancer were tested for the ability to enhance killing of the NK sensitive target cell line K562 or various tumor cells coated with monoclonal antibodies. Target cells were labeled with the fluorescent dye Calcein AM for 1 hour at 37° C. in a dark humidified CO2 incubator. […] Activated effector cells and labeled target cells were incubated in 96-well tissue culture plates at for 4 hours at 37° C. in a dark humidified CO2 incubator in an assay buffer containing HBSS+Ca/Mg+5% FBS. […] Fluorecence was quantified with a fluorescent microtiter plate reader. The % specific lysis was calculated as (Sample fluorescence-spontaneous fluorescence)*100/(100% fluorescence-spontaneous). 100% fluorescence was determined from wells that contained labeled target cells and detergent such at 0.1% Tween-20 or Triton X-100. Spontaneous fluorescence was determined from wells that contained assay buffer and target cells but not effector cells. […]

[1] = system: breast cancer cell line SKBR3; test: Herceptin-mediated ADCC of SKBR3 cells by PBMC effector cells; conditions: PBMCs activated with the ADCC enhancer; FIG. 3
Experimental: (§1) Stimulation of PBMCs: Human Peripheral blood mononuclear cells (PBMCs) were isolated by Ficoll™ density gradient centrifugation and resuspended in RPMI containing 2% heat-inactivated FBS. PBMCs at a concentration of 1 to 3 million cells per mL were incubated with 10-500 nM ADCC enhancer in a humidified CO2 incubator for 18-72 hrs. Activated PBMCs were then used as effector cells in NK and ADCC assays. NK and ADCC Assays: PBMCs activated with the ADCC enhancer were tested for the ability to enhance killing of the NK sensitive target cell line K562 or various tumor cells coated with monoclonal antibodies. Target cells were labeled with the fluorescent dye Calcein AM for 1 hour at 37° C. in a dark humidified CO2 incubator. […] Activated effector cells and labeled target cells were incubated in 96-well tissue culture plates at for 4 hours at 37° C. in a dark humidified CO2 incubator in an assay buffer containing HBSS+Ca/Mg+5% FBS. […] Fluorecence was quantified with a fluorescent microtiter plate reader. The % specific lysis was calculated as (Sample fluorescence-spontaneous fluorescence)*100/(100% fluorescence-spontaneous). 100% fluorescence was determined from wells that contained labeled target cells and detergent such at 0.1% Tween-20 or Triton X-100. Spontaneous fluorescence was determined from wells that contained assay buffer and target cells but not effector cells.

[2] = system: breast cancer cell line MDA-MB-231; test: Herceptin-mediated ADCC of MDA-MB-231 cells by PBMC effector cells; conditions: PBMCs activated with the ADCC enhancer; FIG. 3
Experimental: as §1

[3] = system: rituximab-coated HS-Sultan cells; test: Rituximab-mediated ADCC of HS-Sultan cells with PBMCs from FcγR-genotyped donors; conditions: for rituximab-mediated ADCC, specific lysis: ratio 100:1, FIG. 5; for baseline ADCC (percent specific lysis): buffer control
Experimental: Percent specific lysis is shown for Rituxan-coated HS-Sultan cells incubated with PBMC effector cells at an E:T ratio of 50:1. PBMCs from a patient with the high affinity genotype FcgR2a131 H/H and FcgR3a V/V (solid rectangles) or a patient with the lower affinity genotype FcgR2a131 […] and FcgR3a V/F (open rectangles) were evaluated for ADCC after stimulation with buffer control (baseline) or stimulation with 500 nM ADCC enhancer.
ADCC is mediated through immune effector cells included NK cells that engage the Fc portion of the monoclonal antibody through specific receptors. Patients with single nucleotide polymorphisms in these receptors such as FcRgamma3a position 158 and FcRgamma2a position 131 have a poorer clinical prognosis presumably from poor ADCC due to a lower affinity of the receptor for the monoclonal antibody. […] To determine if this common polymorphism affects the baseline antibody-dependent cellular cytoxicity (ADCC) response and/or response to the ADCC enhancer molecule of the present invention (Compound VTX-2337), PBMCs from donors were genotyped for the two alleles encoding the F and V isoforms, respectively, and tested in vitro. We analyzed rituximab-mediated ADCC using unstimulated PBMC or VTX-2337-stimulated PBMC from 15 donors, including 10 donors with FF or FV phenotype and 5 donors with VV phenotype.
Blood was collected from healthy donors and PBMCs were isolated using a Ficoll gradient. PBMCs were activated by culturing them in the presence of 500 nM VTX-2337 at 37° C. in a humidified 5%CO2 incubator for 48 hours. Activated PBMCs were then incubated with rituximab-coated HS-Sultan cells loaded at a ratio of 100:1 for 4 hours. Lysis was determined by measuring release of the fluorescent dye Calcein AM from the HS-Sultan cells.

Compound | lysis of K562 target cells (K562 target cells; PBMCs stimulated with 167 nM ADCC enhancer) | lysis of K562 target cells (K562 target cells; PBMCs stimulated with 500 nM ADCC enhancer) | cell killing of Herceptin coated SKBR3 cells [1] | cell killing of Herceptin coated MDA-MB-231 cells [2] | rituximab-mediated ADCC, specific lysis ([3]; PBMC from high affinity VV donors stimulated with 500 nM VTX-2337 for 48 hours) | rituximab-mediated ADCC, specific lysis ([3]; PBMC from low affinity FF/FV donors stimulated with 500 nM VTX-2337 for 48 hours) | ADCC (percent specific lysis) ([3]; patient with low affinity genotype, PBMCs stimulated with 500 nM ADCC enhancer, Rituxan-coated targets, E:T 50:1, FIG. 4) | baseline ADCC (percent specific lysis) ([3]; patient with high affinity genotype, E:T 50:1, FIG. 4) | baseline ADCC (percent specific lysis) ([3]; patient with lower affinity genotype, E:T 50:1, FIG. 4) | rituximab-mediated ADCC, specific lysis ([3]; unstimulated PBMC from FF/FV donors) | rituximab-mediated ADCC, specific lysis ([3]; unstimulated PBMC from VV donors)
CCCN(CCC)C(=O)C1=Cc2ccc(-c3ccc(C(=O)N4CCCC4)cc3)cc2N=C(N)C1 [ADCC enhancer, {2-amino-8-[4-(pyrrolidinylcarbonyl)phenyl]-(3H-benzo[f]azepin-4-yl)}-N,N-dipropylcarboxamide] | up to 45% | greater than 90% | > 80% | 40-60% | 55.5±2.6% | 40.0±4.1% | 30% |  |  |  | 
Rituxan: monoclonal antibody against the protein CD20 |  |  |  |  |  |  |  | approximately 30% | 10% | 20.5±2.5% | 31.7±2.9%
